In PubChem BioAssay AID1259407 (Chemical Carcinogenesis Research Information System (CCRIS), 2018):
Active and inactive are the calls of the source. No rule for the calls is given here.

Test system: CCRIS mutagenicity, Ames/micronucleus/aberration tests
Experiment: CCRIS mutagenicity studies
[1] = Test System: AMES SALMONELLA TYPHIMURIUM, Strain/Indicator: TA98, Metabolic Activation: NONE, Method: PREINCUBATION
[2] = Test System: AMES SALMONELLA TYPHIMURIUM, Strain/Indicator: TA98, Metabolic Activation: RAT LIVER S-9, PHENOBARBITAL AND BETA-NAPHTHOFLAVONE, Method: PREINCUBATION
[3] = Test System: AMES SALMONELLA TYPHIMURIUM, Strain/Indicator: TA100, Metabolic Activation: NONE, Method: PREINCUBATION
[4] = Test System: AMES SALMONELLA TYPHIMURIUM, Strain/Indicator: TA100, Metabolic Activation: RAT LIVER S-9, PHENOBARBITAL AND BETA-NAPHTHOFLAVONE, Method: PREINCUBATION
[5] = Test System: AMES SALMONELLA TYPHIMURIUM, Strain/Indicator: TA1535, Metabolic Activation: NONE, Method: PREINCUBATION
[6] = Test System: AMES SALMONELLA TYPHIMURIUM, Strain/Indicator: TA1535, Metabolic Activation: RAT LIVER S-9, PHENOBARBITAL AND BETA-NAPHTHOFLAVONE, Method: PREINCUBATION
[7] = Test System: AMES SALMONELLA TYPHIMURIUM, Strain/Indicator: TA1537, Metabolic Activation: NONE, Method: PREINCUBATION
[8] = Test System: AMES SALMONELLA TYPHIMURIUM, Strain/Indicator: TA1537, Metabolic Activation: RAT LIVER S-9, PHENOBARBITAL AND BETA-NAPHTHOFLAVONE, Method: PREINCUBATION
[9] = Test System: AMES SALMONELLA TYPHIMURIUM, Strain/Indicator: TA98, Metabolic Activation: RAT, LIVER, S-9, PCB, Method: PREINCUBATION
[10] = Test System: AMES SALMONELLA TYPHIMURIUM, Strain/Indicator: TA98, Metabolic Activation: NONE, Method: STANDARD PLATE
[11] = Test System: AMES SALMONELLA TYPHIMURIUM, Strain/Indicator: TA100, Metabolic Activation: NONE, Method: STANDARD PLATE
[12] = Test System: AMES SALMONELLA TYPHIMURIUM, Strain/Indicator: TA1535, Metabolic Activation: NONE, Method: STANDARD PLATE

Measured: mutagenic call

Cc1cc(-c2ccc(N=C=O)c(C)c2)ccc1N=C=O
inactive: [1] inactive; negative | [3] inactive; negative | [4] inactive; negative | [5] inactive; negative | [6] inactive; negative | [7] inactive; negative | [8] inactive; negative | Test System: AMES SALMONELLA TYPHIMURIUM, Strain/Indicator: TA1538, Metabolic Activation: NONE, Method: PREINCUBATION inactive; negative | Test System: E.COLI, Strain/Indicator: WP2UVRA, Metabolic Activation: NONE, Method: PREINCUBATION inactive; negative | Test System: E.COLI, Strain/Indicator: WP2UVRA, Metabolic Activation: RAT LIVER S-9, PHENOBARBITAL AND BETA-NAPHTHOFLAVONE, Method: PREINCUBATION inactive; negative
active: End Point: IN VITRO CHROMOSOMAL ABERRATIONS, Test System: CHL CELLS, Metabolic Activation: RAT, LIVER, S-9, SODIUM PHENOBARBITAL AND 5,6-BENZOFLAVONE active; positive (structural changes) | [2] active; positive | Test System: AMES SALMONELLA TYPHIMURIUM, Strain/Indicator: TA1538, Metabolic Activation: RAT LIVER S-9, PHENOBARBITAL AND BETA-NAPHTHOFLAVONE, Method: PREINCUBATION active; positive

COc1nncc2ncccc12
inactive: [1] inactive; negative | [9] inactive; negative | [3] inactive; negative | Test System: AMES SALMONELLA TYPHIMURIUM, Strain/Indicator: TA100, Metabolic Activation: RAT, LIVER, S-9, PCB, Method: PREINCUBATION inactive; negative

C=Cc1ccccn1
inactive: [10] inactive; negative | Test System: AMES SALMONELLA TYPHIMURIUM, Strain/Indicator: TA98, Metabolic Activation: RAT, LIVER, S-9, AROCLOR 1254, Method: STANDARD PLATE inactive; negative | [11] inactive; negative | Test System: AMES SALMONELLA TYPHIMURIUM, Strain/Indicator: TA100, Metabolic Activation: RAT, LIVER, S-9, AROCLOR 1254, Method: STANDARD PLATE inactive; negative | [12] inactive; negative | Test System: AMES SALMONELLA TYPHIMURIUM, Strain/Indicator: TA1535, Metabolic Activation: RAT, LIVER, S-9, AROCLOR 1254, Method: STANDARD PLATE inactive; negative | Test System: AMES SALMONELLA TYPHIMURIUM, Strain/Indicator: TA1538, Metabolic Activation: NONE, Method: STANDARD PLATE inactive; negative | Test System: AMES SALMONELLA TYPHIMURIUM, Strain/Indicator: TA1538, Metabolic Activation: RAT, LIVER, S-9, AROCLOR 1254, Method: STANDARD PLATE inactive; negative | Test System: Ames Salmonella typhimurium, Strain/Indicator: TA98, Metabolic Activation: None, Method: Preincubation inactive; negative | Test System: Ames Salmonella typhimurium, Strain/Indicator: TA98, Metabolic Activation: Rat, Liver, S9, Sodium phenobarbital and 5,6-benzoflavone (10%), Method: Preincubation inactive; negative | Test System: Ames Salmonella typhimurium, Strain/Indicator: TA100, Metabolic Activation: None, Method: Preincubation inactive; negative | Test System: Ames Salmonella typhimurium, Strain/Indicator: TA100, Metabolic Activation: Rat, Liver, S9, Sodium phenobarbital and 5,6-benzoflavone (10%), Method: Preincubation inactive; negative | Test System: Ames Salmonella typhimurium, Strain/Indicator: TA1535, Metabolic Activation: None, Method: Preincubation inactive; negative | Test System: Ames Salmonella typhimurium, Strain/Indicator: TA1535, Metabolic Activation: Rat, Liver, S9, Sodium phenobarbital and 5,6-benzoflavone (10%), Method: Preincubation inactive; negative | Test System: Ames Salmonella typhimurium, Strain/Indicator: TA1537, Metabolic Activation: None, Method: Preincubation inactive; negative | Test System: Ames Salmonella typhimurium, Strain/Indicator: TA1537, Metabolic Activation: Rat, Liver, S9, Sodium phenobarbital and 5,6-benzoflavone (10%), Method: Preincubation inactive; negative | Test System: UDS RAT HEPATOCYTES, Strain/Indicator: THY INCORP, Metabolic Activation: NONE inactive; negative
active: End Point: In vitro chromosomal aberrations, Test System: Chinese hamster lung (CHL/IU) cells, Metabolic Activation: Rat, Liver, S9, Phenobarbital and 5,6-benzoflavone active; positive (structural changes) | Test System: E. coli, Strain/Indicator: WP2uvrA/pKM101, Metabolic Activation: Rat, Liver, S9, Sodium phenobarbital and 5,6-benzoflavone (10%), Method: Preincubation active; positive

Nc1ccc(-c2ccc(N)c(O)c2)cc1O
active: [11] active; positive (weak) | Test System: AMES SALMONELLA TYPHIMURIUM, Strain/Indicator: TA100, Metabolic Activation: RAT, LIVER, S-9, AROCLOR, Method: STANDARD PLATE active; positive (weak)
inactive: [10] inactive; negative | Test System: AMES SALMONELLA TYPHIMURIUM, Strain/Indicator: TA98, Metabolic Activation: RAT, LIVER, S-9, AROCLOR, Method: STANDARD PLATE inactive; negative | [12] inactive; negative | Test System: AMES SALMONELLA TYPHIMURIUM, Strain/Indicator: TA1535, Metabolic Activation: RAT, LIVER, S-9, AROCLOR, Method: STANDARD PLATE inactive; negative | Test System: AMES SALMONELLA TYPHIMURIUM, Strain/Indicator: TA1537, Metabolic Activation: NONE, Method: STANDARD PLATE inactive; negative | Test System: AMES SALMONELLA TYPHIMURIUM, Strain/Indicator: TA1537, Metabolic Activation: RAT, LIVER, S-9, AROCLOR, Method: STANDARD PLATE inactive; negative

O=C(O)c1ccccc1O
inactive: Test System: AMES SALMONELLA TYPHIMURIUM, Strain/Indicator: TA98, Metabolic Activation: GUINEA PIG, LIVER, S-9, PCB, Method: PREINCUBATION inactive; negative | Test System: AMES SALMONELLA TYPHIMURIUM, Strain/Indicator: TA98, Metabolic Activation: HAMSTER, LIVER, S-9, PCB, Method: PREINCUBATION inactive; negative | Test System: AMES SALMONELLA TYPHIMURIUM, Strain/Indicator: TA98, Metabolic Activation: MOUSE, LIVER, S-9, PCB, Method: PREINCUBATION inactive; negative | [1] inactive; negative | [2] inactive; negative | [9] inactive; negative | Test System: AMES SALMONELLA TYPHIMURIUM, Strain/Indicator: TA100, Metabolic Activation: GUINEA PIG, LIVER, S-9, PCB, Method: PREINCUBATION inactive; negative | Test System: AMES SALMONELLA TYPHIMURIUM, Strain/Indicator: TA100, Metabolic Activation: HAMSTER, LIVER, S-9, PCB, Method: PREINCUBATION inactive; negative | Test System: AMES SALMONELLA TYPHIMURIUM, Strain/Indicator: TA100, Metabolic Activation: MOUSE, LIVER, S-9, PCB, Method: PREINCUBATION inactive; negative | [3] inactive; negative | [4] inactive; negative | [5] inactive; negative | [6] inactive; negative | [7] inactive; negative | [8] inactive; negative | Test System: E.COLI, Strain/Indicator: WP2UVRA/PKM101, Metabolic Activation: NONE, Method: PREINCUBATION inactive; negative | Test System: E.COLI, Strain/Indicator: WP2UVRA/PKM101, Metabolic Activation: RAT LIVER S-9, PHENOBARBITAL AND BETA-NAPHTHOFLAVONE, Method: PREINCUBATION inactive; negative
